Experimental data published in patent US6946463B2, “1,2,5,10-tetrahydropyridazino[4,5-b]quinoline-1,10-diones and their use for the treatment of pain” (Astrazeneca AB, priority 2000, dated 2005).
pKi: −log10 of the molar value. Where a name gives a salt, the structure may show the parent alone. Read-outs that look alike come from different tables or passages of the source.

Target: T1, NMDA receptor glycine site (Rattus norvegicus, UniProt P35439)
T1 construct: fresh brain tissue including cerebral cortex and hippocampus from male Sprague Dawley rats was homogenized; tissue Analytical Biological Services Inc; host or cells: rat brain membranes (cerebral cortex and hippocampus, male Sprague Dawley rats)
Test: Test A: Inhibition of binding of [3H]-MDL105,519 to brain membranes
Source text: Test A: Inhibition of Binding of [^3H]-MDL105,519:
Binding of compounds to the NMDA receptor glycine site may be assessed by measuring the ability of test compounds to inhibit the binding of tritiated MDL105,519 to brain membranes bearing the receptor.
Briefly, fresh brain tissue including cerebral cortex and hippocampus from male Sprague Dawley rats was homogenized in 0.32 M sucrose and centrifuged at low speed to separate cellular membranes from other cellular components. The membranes were then washed 3 times using deionized water, followed by treatment with 0.04% Triton X-100. Finally, membranes were washed six times in 50 mM Tris citrate buffer, pH 7.4, and frozen at −80° C. until use.
[^3H]MDL105,519 (72 Ci/mmol) was purchased from Amersham. Cold MDL105,519 was purchased from Sigma/RBI. […] On the day of the experiment, brain membranes were thawed at room temperature and suspended in 50 mM tris acetate buffer, pH 7.4 (“TAB”). Seventy-five micro grams per milliliter protein (by using the BioRad dye) were used for competition binding. The experiments were carried out using 96-well plates. […] Non specific binding was determined by using 100 μM of unlabeled MDL105,519. […] After incubation, unbound [^3H]ML105,519 was removed by filtration onto GF/B Unifilter plates using a Packard harvester. Filters were washed four times with ice cold TAB (total of 1.2 mL buffer). The plates were dried overnight at room temperature and bound radioactivity was measured on a Packard TopCount after the addition of 45 μL per well of the MICROSCINT O.
Human Brain Membranes: Human brain membranes were obtained from Analytical Biological Services Inc., and assays were performed as described for rat membranes.
Data analysis: Data was analyzed using a Microsoft Excel spreadsheet and GraphPad Prizm software and potency of compounds is expressed as the Ki (nM).

[1] = inhibition of [3H]-MDL105,519 binding to brain membranes, 1.2 nM radioligand, 30 minutes at room temperature

| pKi | Compound | other results |
| --- | --- | --- |
| 5.59 | CC(c1cccc[n+]1[O-])n1nc(O)c2[nH]c3cc(Cl)ccc3c(=O)c2c1=O (racemic) [Ex. 10, (+/−)-7-Chloro-4-hydroxy-2-(1-pyrid-2-yl-N-oxide)ethyl-1,2,5,10-tetrahydropyridazino[4,5-b]quinoline-1,10-dione] |  |
|  | O=c1c2ccc(Cl)cc2[nH]c2c(O)nn(C(c3ccccn3)C3CC3)c(=O)c12 (racemic) [Ex. 1, (+/−)-7-Chloro-4-hydroxy-2-(1-cyclopropyl-1-pyrid-2-yl)methyl-1,2,5,10-tetrahydropyridazino[4,5-b]quinoline-1,10-dione] | pKi [1]: 6.00 |
|  | O=c1[nH]n(C(c2ccccn2)C2CCCC2)c(=O)c2c(O)c3ccc(Cl)cc3nc12 (racemic) [Ex. 3, (+/−)-7-Chloro-4-hydroxy-2-(1-cyclopentyl-1-pyrid-2-yl)methyl-1,2,5,10-tetrahydropyridazino[4,5-b]quinoline-1,10-dione hydrochloride] | Ki (inhibition of [3H]-MDL105,519 binding to brain membranes, bound in μM): > 10 µM |
|  | O=c1c2ccc(Cl)cc2[nH]c2c(O)nn(C(c3ccccc3)c3ccncc3)c(=O)c12 (racemic) [Ex. 4, (+/−)-7-Chloro-4-hydroxy-2-(1-phenyl-1-pyrid-4-yl)methyl-1,2,5,10-tetrahydropyridazino[4,5-b]quinoline-1,10-dione] | pKi [1]: 5.43 |
| 6.64 | Cc1cc(C(C)n2nc(O)c3[nH]c4cc(Cl)ccc4c(=O)c3c2=O)ccn1 (racemic) [Ex. 8, (+/−)-7-Chloro-4-hydroxy-2-(1-methyl(2-methylpyrid-4-yl)methyl)-1,2,5,10-tetrahydropyridazino[4,5-b]quinoline-1,10-dione methanesulfonate] |  |
| 5.62 | CC(c1cc[n+]([O-])cc1)n1[nH]c(=O)c2nc3cc(Cl)ccc3c(O)c2c1=O (racemic) [Ex. 11, (+/−)-7-Chloro-4-hydroxy-2-(1-pyrid-4-yl-N-oxide)ethyl-1,2,5,10-tetrahydrpyridazino[4,5-b]quinoline-1,10-dione] |  |
| 5.75 | Cc1cccnc1C(C)n1nc(O)c2[nH]c3cc(Cl)ccc3c(=O)c2c1=O (racemic) [Ex. 7, (+/−)-7-Chloro-4-hydroxy-2-(1-methyl(3-methylpyrid-2-yl)methyl)-1,2,5,10-tetrahydropydridazino[4,5-b]quinoline-1,10-dione methanesulfonate] |  |
| 6.04 | Cc1cnccc1C(C)n1nc(O)c2[nH]c3cc(Cl)ccc3c(=O)c2c1=O (racemic) [Ex. 5, (+/−)-7-Chloro-4-hydroxy-2-(1-(3-methylpyrid-4-yl))ethyl-1,2,5,10-tetrahydropyridazino[4,5-b]quinoline-1,10-dione] |  |
